Values of other authors as cited in patent publication US20130267526A1, “HETEROCYCLIC COMPOUNDS AND THEIR USES” (Amgen, Inc., priority 2010, published 2013).

Assays:
[1] = system: mouse model of rheumatoid arthritis; settings: in vivo
[2] = system: model of systemic lupus erythematosis; settings: in vivo
[3] = biological target: T1, p110δ (Homo sapiens, UniProt O00329)
T1 sequence (O00329 1-1044): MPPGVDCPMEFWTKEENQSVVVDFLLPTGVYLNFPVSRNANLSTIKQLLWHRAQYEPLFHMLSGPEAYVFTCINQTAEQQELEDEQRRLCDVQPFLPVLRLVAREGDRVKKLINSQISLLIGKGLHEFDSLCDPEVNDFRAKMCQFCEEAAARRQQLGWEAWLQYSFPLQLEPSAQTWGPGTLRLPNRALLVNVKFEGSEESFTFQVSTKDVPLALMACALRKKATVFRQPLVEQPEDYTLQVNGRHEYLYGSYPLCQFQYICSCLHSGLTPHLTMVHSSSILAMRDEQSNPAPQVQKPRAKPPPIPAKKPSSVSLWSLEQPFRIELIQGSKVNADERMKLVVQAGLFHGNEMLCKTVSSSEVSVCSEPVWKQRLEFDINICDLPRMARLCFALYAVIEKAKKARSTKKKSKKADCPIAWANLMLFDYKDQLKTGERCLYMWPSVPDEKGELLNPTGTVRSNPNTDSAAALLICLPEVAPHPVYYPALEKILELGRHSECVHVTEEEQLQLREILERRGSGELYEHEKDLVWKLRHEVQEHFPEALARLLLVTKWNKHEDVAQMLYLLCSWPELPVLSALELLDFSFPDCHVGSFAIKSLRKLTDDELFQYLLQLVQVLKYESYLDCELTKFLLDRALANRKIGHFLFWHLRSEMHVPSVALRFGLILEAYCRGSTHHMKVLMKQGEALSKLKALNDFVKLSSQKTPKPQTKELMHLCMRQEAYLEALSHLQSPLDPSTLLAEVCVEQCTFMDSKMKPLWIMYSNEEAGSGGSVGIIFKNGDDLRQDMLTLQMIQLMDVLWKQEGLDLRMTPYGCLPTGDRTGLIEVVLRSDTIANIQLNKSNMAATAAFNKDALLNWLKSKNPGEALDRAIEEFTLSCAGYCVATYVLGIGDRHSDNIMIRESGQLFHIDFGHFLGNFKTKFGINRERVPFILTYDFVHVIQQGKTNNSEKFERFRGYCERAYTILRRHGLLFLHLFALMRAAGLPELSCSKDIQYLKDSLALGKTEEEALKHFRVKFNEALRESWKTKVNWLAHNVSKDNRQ

[4] = system: protein kinases
[5] = system: passive cutaneous anaphylaxis (PCA); settings: absence of functional delta (IC 87114 and p110δ D910A mice)
[6] = system: ovalbumin-induced airway inflammation

| SMILES | efficacy in a mouse model of rheumatoid arthritis [1] | onset of disease in a model of systemic lupus erythematosis [2] | inhibition of p110δ [3] | activity against any protein kinases tested [4] | passive cutaneous anaphylaxis (PCA) [5] | inflammation and disease in murine asthma model [6] |
| --- | --- | --- | --- | --- | --- | --- |
| O=C1NC(=O)/C(=C\c2ccc3nccnc3c2)S1 [AS 605240] | efficacious | delay onset of disease |  |  |  |  |
| Cc1ccccc1-n1c(Cn2cnc3c(N)ncnc32)nc2cccc(C)c2c1=O [IC87114] |  |  | high nanomolar range (triple digit) | no activity | significantly reduced | significantly ameliorate |
